Experimental data as given in patent US5488051A, “Substituted 5,6-dihydro-5-oxo-1,4-dithiino-(2,3-d)-pyridazine-2,3-dicarbonitriles, compositions containing them and their use as antimicrobials” (The Dow Chemical Company, priority 1994, dated 1996).
Converted amounts (≈) assume the structure as drawn. Like-named read-outs stand apart in the source and are kept apart here.

What was measured:
[1] = test system: Aureobasidium pullulan (Ap); assay: MIC for Aureobasidium pullulan, malt yeast agar; format: cell-based, Aureobasidium pullulan ATCC 16622; settings: malt yeast agar; 30° C.; 48 hours for yeast and 72 hours for fungi; read-out: Minimum Inhibitory Concentration (MIC), Ap
Method: (§1) The minimum inhibitory concentration (MIC) for the compounds listed in Table I is determined for 9 bacteria, using nutrient agar; and 7 yeast and fungi, using malt yeast agar. A one percent solution of the test compound is prepared in a mixture of acetone and water.
(§2) Malt yeast agar is prepared by adding 3 g yeast extract and 45 g malt agar per liter of deionized water. The specific agar is dispensed in 30 mL aliquots into 25×200 mm test tubes, capped and autoclaved for 15 minutes at 115° C.
(§3) The test tubes containing the malt yeast agar and the nutrient agar are cooled in a water bath until the temperature of the agar is 48° C. Then, an appropriate amount of the one percent solution of the test compound is added (except in the controls where no compound is added) to the respective test tubes so that the final concentrations are zero (0), 1.0, 2.5, 5, 10, 25, 50, 100, 250 and 500 parts per million of the test compound in each of the respective type of agar. The contents of each of the test tubes are then transferred to separate petri plates. After drying for 24 hours, the petri plates containing nutrient agar are inoculated with bacteria and those containing malt yeast agar are inoculated with yeast and fungi.
(§4) The inoculation with the yeast and fungi is accomplished as follows. Cultures of yeast and fungi are incubated for seven days on malt yeast agar at 30° C. These cultures are used to prepare suspensions by the following procedure. A suspension of each organism is prepared by adding 10 mL of sterile saline and 10 microliters of octylphenoxy polyethoxy ethanol to the agar slant of yeast or fungi. The sterile saline/octylphenoxy polyethoxy ethanol solution is then agitated with a sterile swab to suspend the microorganism grown on the slant. Each resulting suspension is diluted into sterile saline (1 part suspension: 9 parts sterile saline). Aliquots of these dilutions are placed in individual wells of Steer's Replicator and petri plates inoculated as previously described. The petri plates are incubated at 30° C. and read after 48 hours for yeast and 72 hours for fungi.
(§5) Table II list the bacteria, yeast and fungi used in the MIC test described above along with their respective American Type Culture Collection (ATCC) identification numbers.

[2] = test system: Pseudomonas aeruginosa (PRD-10); assay: MIC for Pseudomonas aeruginosa PRD-10, nutrient agar; format: cell-based, Pseudomonas aeruginosa ATCC 15442; settings: 30° C., 48 hours, read-out: Minimum Inhibitory Concentration (MIC), PRD
Method: as §1
(§6) Nutrient agar is prepared at pH 6.8, representing a neutral medium, and at pH 8.2, representing an alkaline medium. The nutrient agars are prepared by adding 23 g of nutrient agar to one-liter of deionized water. In addition, the alkaline medium is prepared by adjusting a 0.04M solution of N-[tris-(hydroxymethyl)methyl]-glycine buffered deionized water with concentrated sodium hydroxide to a pH of 8.5.
as §3
(§7) The inoculation with bacteria is accomplished by using the following procedure. Twenty-four hour-cultures of each of the bacteria are prepared by incubating the respective bacteria in tubes containing nutrient broth for 24 hours at 30° C. in a shaker. Dilutions of each of the 24 hour-cultures are made so that nine separate suspensions (one for each of the nine test bacteria) are made, each containing 10^8 colony forming units (CFU) per mL of suspension of a particular bacteria. Aliquots of 0.3 mL of each of the bacterial suspensions are used to fill the individual wells of Steer's Replicator. For each microbial suspension, 0.3 mL was used to fill three wells (i.e., three wells of 0.3 mL each) so that for the nine different bacteria, 27 wells are filled. The Steer's Replicator is then used to inoculate both the neutral and alkaline pH nutrient agar petri plates.
(§8) The inoculated petri plates are incubated at 30° C. for 48 hours and then read to determine if the test compound which is incorporated into the agar prevented growth of the respective bacteria.
as §5

[3] = test system: Enterobacter aerogenes (Ea); assay: MIC for Enterobacter aerogenes, nutrient agar; format: cell-based, Enterobacter aerogenes ATCC 13048; settings: Klebsiella aerogenes, nutrient agar, 30° C., 48 hours, read-out: Minimum Inhibitory Concentration (MIC), Ea
Method: as §1, §6, §3, §7, §8, §5

Saccharomyces cerevisiae = assay: MIC for Saccharomyces cerevisiae, malt yeast agar; format: cell-based, Saccharomyces cerevisiae ATCC 4105; settings: malt yeast agar, 30° C., 48 hours for yeast, read-out: Minimum Inhibitory Concentration (MIC), Sc
Method: as §1, §2, §3, §4, §5

[4] = test system: Staphylococcus aureus (Sa); assay: MIC for Staphylococcus aureus, nutrient agar; format: cell-based, Staphylococcus aureus ATCC 6538; settings: 30° C., 48 hours, read-out: Minimum Inhibitory Concentration (MIC), Sa
Method: as §1, §6, §3, §7, §8, §5

Fusarium oxysporum (Fo) = assay: MIC for Fusarium oxysporum, malt yeast agar; format: cell-based, Fusarium oxysporum ATCC 48112; settings: malt yeast agar; 30° C., 72 hours for fungi; read-out: Minimum Inhibitory Concentration (MIC), Fo
Method: as §1, §2, §3, §4, §5

Trichoderma viride (Tv) = assay: MIC for Trichoderma viride, malt yeast agar; format: cell-based, Trichoderma viride ATCC 8678; settings: malt yeast agar; 30° C., 72 hours for fungi; read-out: Minimum Inhibitory Concentration (MIC), Tv
Method: as §1, §2, §3, §4, §5

Escherichia coli (Ec) = assay: MIC for Escherichia coli, nutrient agar; format: cell-based, Escherichia coli ATCC 11229; settings: 30° C., 48 hours, read-out: Minimum Inhibitory Concentration (MIC), Ec
Method: as §1, §6, §3, §7, §8, §5

[5] = test system: Penicillium chrysogenum (Pc); assay: MIC for Penicillium chrysogenum, malt yeast agar; format: cell-based, Penicillium chrysogenum ATCC 9480; settings: malt yeast agar; 30° C., 72 hours for fungi; read-out: Minimum Inhibitory Concentration (MIC), PC
Method: as §1, §2, §3, §4, §5

Bacillus subtilis (Bs) = assay: MIC for Bacillus subtilis, nutrient agar; format: cell-based, Bacillus subtilis ATCC 8473; settings: 30° C., 48 hours, read-out: Minimum Inhibitory Concentration (MIC), Bs
Method: as §1, §6, §3, §7, §8, §5

Candida albicans (Ca) = assay: MIC for Candida albicans, malt yeast agar; format: cell-based, Candida albicans ATCC 10231; settings: malt yeast agar; 30° C., 48 hours for yeast; read-out: Minimum Inhibitory Concentration (MIC), Ca
Method: as §1, §2, §3, §4, §5

Salmonella choleraesuis = assay: MIC for Salmonella choleraesuis, nutrient agar; format: cell-based, Salmonella choleraesuis ATCC 10708; settings: Salmonella enterica, 30° C., 48 hours, read-out: Minimum Inhibitory Concentration (MIC), SC
Method: as §1, §6, §3, §7, §8, §5

Proteus vulgaris (Pv) = assay: MIC for Proteus vulgaris, nutrient agar; format: cell-based, Proteus vulgaris ATCC 881; settings: 30° C., 48 hours, read-out: Minimum Inhibitory Concentration (MIC), Pv
Method: as §1, §6, §3, §7, §8, §5

Aspergillus niger (An) = assay: MIC for Aspergillus niger, malt yeast agar; format: cell-based, Aspergillus niger ATCC 16404; settings: malt yeast agar; 30° C., 72 hours for fungi; read-out: Minimum Inhibitory Concentration (MIC), An
Method: as §1, §2, §3, §4, §5

[6] = test system: Klebsiella pneumonias (Kp); assay: MIC for Klebsiella pneumonias, nutrient agar; format: cell-based, Klebsiella pneumonias ATCC 8308; settings: 30° C., 48 hours, read-out: Minimum Inhibitory Concentration (MIC), Kp
Method: as §1, §6, §3, §7, §8, §5

[7] = test system: Pseudomonas aeruginosa (Pa); assay: MIC for Pseudomonas aeruginosa, nutrient agar; format: cell-based, Pseudomonas aeruginosa ATCC 10145; settings: 48 hours, read-out: Minimum Inhibitory Concentration (MIC), Pa
Method: as §1, §6, §3, §7, §8, §5

N#CC1=C(C#N)Sc2c(cnn(-c3cccc(Cl)c3)c2=O)S1 [E, 5,6-dihydro-6-(3-chlorophenyl)-5-oxo-1,4-dithiino-(2,3-d)-pyridazine-2,3-dicarbonitrile]
MIC [1]: 25 µg/mL (≈ 72.5 µM) | MIC ([2]; pH 6.8, nutrient agar): > 500 µg/mL | MIC ([2]; pH 8.2, nutrient agar): > 500 µg/mL | MIC ([3]; pH 6.8): > 500 µg/mL | MIC ([3]; pH 8.2): > 500 µg/mL | MIC (Saccharomyces cerevisiae): 25 µg/mL (≈ 72.5 µM) | MIC ([4]; pH 6.8, nutrient agar): 250 µg/mL (≈ 725 µM) | MIC ([4]; pH 8.2, nutrient agar): > 500 µg/mL | MIC (Fusarium oxysporum (Fo)): 50 µg/mL (≈ 145 µM) | MIC (Trichoderma viride (Tv)): 100 µg/mL (≈ 290 µM) | MIC (Escherichia coli (Ec); pH 6.8, nutrient agar): 500 µg/mL (≈ 1450 µM) | MIC (Escherichia coli (Ec); pH 8.2, nutrient agar): > 500 µg/mL | MIC [5]: 25 µg/mL (≈ 72.5 µM) | MIC (Bacillus subtilis (Bs); pH 6.8, nutrient agar): 25 µg/mL (≈ 72.5 µM) | MIC (Bacillus subtilis (Bs); pH 8.2, nutrient agar): 250 µg/mL (≈ 725 µM) | MIC (Candida albicans (Ca)): 25 µg/mL (≈ 72.5 µM) | MIC (Salmonella choleraesuis; pH 6.8, nutrient agar): > 500 µg/mL | MIC (Salmonella choleraesuis; pH 8.2, nutrient agar): > 500 µg/mL | MIC (Proteus vulgaris (Pv); pH 6.8, nutrient agar): 500 µg/mL (≈ 1450 µM) | MIC (Proteus vulgaris (Pv); pH 8.2, nutrient agar): > 500 µg/mL | MIC (Aspergillus niger (An)): 50 µg/mL (≈ 145 µM) | MIC ([6]; pH 6.8, nutrient agar): > 500 µg/mL | MIC ([6]; pH 8.2, nutrient agar): > 500 µg/mL | MIC ([7]; pH 6.8, 30° C.): > 500 µg/mL | MIC ([7]; pH 8.2, 30° C.): > 500 µg/mL

N#CC1=C(C#N)Sc2c(cnn(-c3ccc(Cl)c(Cl)c3)c2=O)S1 [F, 5,6-dihydro-6-(3,4-dichlorophenyl)-5-oxo-1,4-dithiino-(2,3-d)-pyridazine-2,3-dicarbonitrile]
MIC [1]: 100 µg/mL (≈ 264 µM) | MIC ([2]; pH 6.8, nutrient agar): > 500 µg/mL | MIC ([2]; pH 8.2, nutrient agar): > 500 µg/mL | MIC ([3]; pH 6.8): > 500 µg/mL | MIC ([3]; pH 8.2): > 500 µg/mL | MIC (Saccharomyces cerevisiae): 250 µg/mL (≈ 659 µM) | MIC ([4]; pH 6.8, nutrient agar): 100 µg/mL (≈ 264 µM) | MIC ([4]; pH 8.2, nutrient agar): 250 µg/mL (≈ 659 µM) | MIC (Fusarium oxysporum (Fo)): 500 µg/mL (≈ 1320 µM) | MIC (Trichoderma viride (Tv)): > 500 µg/mL | MIC (Escherichia coli (Ec); pH 6.8, nutrient agar): > 500 µg/mL | MIC (Escherichia coli (Ec); pH 8.2, nutrient agar): > 500 µg/mL | MIC [5]: 250 µg/mL (≈ 659 µM) | MIC (Bacillus subtilis (Bs); pH 6.8, nutrient agar): 100 µg/mL (≈ 264 µM) | MIC (Bacillus subtilis (Bs); pH 8.2, nutrient agar): 500 µg/mL (≈ 1320 µM) | MIC (Candida albicans (Ca)): 250 µg/mL (≈ 659 µM) | MIC (Salmonella choleraesuis; pH 6.8, nutrient agar): > 500 µg/mL | MIC (Salmonella choleraesuis; pH 8.2, nutrient agar): > 500 µg/mL | MIC (Proteus vulgaris (Pv); pH 6.8, nutrient agar): > 500 µg/mL | MIC (Proteus vulgaris (Pv); pH 8.2, nutrient agar): > 500 µg/mL | MIC (Aspergillus niger (An)): 250 µg/mL (≈ 659 µM) | MIC ([6]; pH 6.8, nutrient agar): > 500 µg/mL | MIC ([6]; pH 8.2, nutrient agar): > 500 µg/mL | MIC ([7]; pH 6.8, 30° C.): > 500 µg/mL | MIC ([7]; pH 8.2, 30° C.): > 500 µg/mL

N#CC1=C(C#N)Sc2c(cnn(-c3ccc(Cl)cc3Cl)c2=O)S1 [G, 5,6-dihydro-6-(2,4-dichlorophenyl)-5-oxo-1,4-dithiino-(2,3-d)-pyridazine-2,3-dicarbonitrile]
MIC [1]: 50 µg/mL (≈ 132 µM) | MIC ([2]; pH 6.8, nutrient agar): 500 µg/mL (≈ 1320 µM) | MIC ([2]; pH 8.2, nutrient agar): > 500 µg/mL | MIC ([3]; pH 6.8): > 500 µg/mL | MIC ([3]; pH 8.2): > 500 µg/mL | MIC (Saccharomyces cerevisiae): 50 µg/mL (≈ 132 µM) | MIC ([4]; pH 6.8, nutrient agar): 100 µg/mL (≈ 264 µM) | MIC ([4]; pH 8.2, nutrient agar): 250 µg/mL (≈ 659 µM) | MIC (Fusarium oxysporum (Fo)): 100 µg/mL (≈ 264 µM) | MIC (Trichoderma viride (Tv)): 250 µg/mL (≈ 659 µM) | MIC (Escherichia coli (Ec); pH 6.8, nutrient agar): 250 µg/mL (≈ 659 µM) | MIC (Escherichia coli (Ec); pH 8.2, nutrient agar): > 500 µg/mL | MIC [5]: 100 µg/mL (≈ 264 µM) | MIC (Bacillus subtilis (Bs); pH 6.8, nutrient agar): 25 µg/mL (≈ 65.9 µM) | MIC (Bacillus subtilis (Bs); pH 8.2, nutrient agar): 250 µg/mL (≈ 659 µM) | MIC (Candida albicans (Ca)): 50 µg/mL (≈ 132 µM) | MIC (Salmonella choleraesuis; pH 6.8, nutrient agar): 500 µg/mL (≈ 1320 µM) | MIC (Salmonella choleraesuis; pH 8.2, nutrient agar): > 500 µg/mL | MIC (Proteus vulgaris (Pv); pH 6.8, nutrient agar): 500 µg/mL (≈ 1320 µM) | MIC (Proteus vulgaris (Pv); pH 8.2, nutrient agar): > 500 µg/mL | MIC (Aspergillus niger (An)): 100 µg/mL (≈ 264 µM) | MIC ([6]; pH 6.8, nutrient agar): 250 µg/mL (≈ 659 µM) | MIC ([6]; pH 8.2, nutrient agar): 500 µg/mL (≈ 1320 µM) | MIC ([7]; pH 8.2, 30° C.): > 500 µg/mL
